Measured values from US20070129403A1, “METHOD OF TREATING SCHIZOPHRENIA AND/OR GLUCOREGULATORY ABNORMALITIES” (AVENTIS PHARMACEUTICALS INC., priority 2004, published 2007).
pIC50: −log10 of the molar value. Where “and” joins values, the source holds several entries; their conditions need not be identical. Equal values may be shown once.

Experiments:
[1] = test system: release of norepinephrine, acetylcholine and serotonin; conditions: dependence on added calcium; Smith et al, 1993; 1996; cited from earlier work
[2] = target: T1, voltage-gated potassium channels in hamster HIT-T15 insulinoma cells (Mesocricetus auratus, UniProt A0A3Q0CYQ2); assay: Whole-cell patch clamp, voltage-gated potassium currents in HIT-T15 insulinoma cells; assay type: cell-based, Syrian Hamster; conditions: for Voltage-Gated Potassium Current (% Control), Average: average of cells; for Voltage-Gated Potassium Current (% Control), single cells: individual cells #1-#5
T1 construct: endogenous in cells; host or cells: HIT-T15 (Syrian hamster insulinoma)
T1 sequence (A0A3Q0CYQ2 1-857): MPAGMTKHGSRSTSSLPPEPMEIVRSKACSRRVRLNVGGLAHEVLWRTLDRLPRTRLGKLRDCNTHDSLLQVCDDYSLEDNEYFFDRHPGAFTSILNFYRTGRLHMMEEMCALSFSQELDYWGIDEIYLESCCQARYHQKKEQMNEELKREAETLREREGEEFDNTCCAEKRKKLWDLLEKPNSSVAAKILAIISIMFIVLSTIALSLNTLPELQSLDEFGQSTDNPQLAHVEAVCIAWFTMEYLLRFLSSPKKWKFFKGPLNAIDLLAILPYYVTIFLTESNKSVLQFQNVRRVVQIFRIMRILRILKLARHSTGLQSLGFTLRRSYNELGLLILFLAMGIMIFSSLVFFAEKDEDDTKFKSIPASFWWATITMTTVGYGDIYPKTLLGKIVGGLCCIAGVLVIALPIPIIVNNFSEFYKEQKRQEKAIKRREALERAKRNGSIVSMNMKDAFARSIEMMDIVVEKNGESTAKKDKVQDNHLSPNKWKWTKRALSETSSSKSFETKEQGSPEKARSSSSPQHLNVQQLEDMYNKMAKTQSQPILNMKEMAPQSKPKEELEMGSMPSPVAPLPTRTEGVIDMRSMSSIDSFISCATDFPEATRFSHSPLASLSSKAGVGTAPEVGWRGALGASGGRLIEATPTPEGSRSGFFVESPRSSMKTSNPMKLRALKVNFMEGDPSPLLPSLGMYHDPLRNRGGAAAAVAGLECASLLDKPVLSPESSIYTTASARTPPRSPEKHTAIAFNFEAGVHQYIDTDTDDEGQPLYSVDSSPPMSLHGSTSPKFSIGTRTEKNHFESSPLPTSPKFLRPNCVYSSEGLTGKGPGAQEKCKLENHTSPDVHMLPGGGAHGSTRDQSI
Description: The purpose of this in vitro study was to evaluate the effects of HP184 on voltage-gated potassium channels in hamster HIT-T15 insulinoma cells using the whole-cell patch-clamping technique.
HIT-T15 cells (from Syrian Hamster pancreas) expressing voltage-gated potassium channels were grown in RPMI media supplemented with 10% fetal bovine serum and 1×penicillin/streptomycin in an atmosphere of 95% air/5% CO2. Cells used for patch-clamping were seeded on glass or plastic coverslips 12-36 hours before use. Currents were recorded at room temperature using the whole-cell configuration of the patch clamp technique with an Axopatch 200B amplifier (Axon Instruments, Foster City, Calif.). Briefly, electrodes (3-6 MΩ resistance) were fashioned from TW150F glass capillary tubes (World Precision Instruments Sarasota, Fla.) and filled with pipette solution (in mM: potassium aspartate 120; KCl 20; Na2ATP 4; HEPES 5; MgCl2 1; pH 7.2 adjusted with KOH). Currents were initiated by a 300-ms positive voltage pulse (20 mV) followed by a 50-ms negative pulse (−100 mV) and were recorded for off-line analyses. Once current from a cell perfused with control external solution (in mM: NaCl 130; KCl 5; sodium acetate 2.8; MgCl2 1; HEPES, 10; glucose 10; CaCl2 1 at pH7.4 adjusted with NaOH) was stabilized, the cell was perfused with external solution containing 1 μM HP184 (batch: R.C.4.53.3; molecular weight: 320.5; diluted from a 50 mM stock solution in DMSO prepared daily; the DMSO final concentration in all drug solutions was not more than 0.06%). Currents were continuously recorded until they reached steady-state condition. The same procedure was performed with increasing concentrations of HP184 (3, 10 and 30 μM, sequentially). For each concentration from each cell, the steady-state current at the end of the 20-mV activation pulse was measured in pico Ampere (pA).
The amplitude in pA for each concentration was compared with that for the control solution from the same cell and expressed as percent control (% control).

[3] = target: T2, cloned human Kv2.1 potassium channels (Homo sapiens, UniProt Q14721); assay: Whole-cell patch clamp, cloned human Kv2.1 channels expressed in U-373MG cells; assay type: cell-based; conditions: for Kv 2.1 Current (% Control), Average: average of cells; for Kv 2.1 Current (% Control), single cells: individual cells
T2 construct: expressed in transfected cells; host or cells: U-373MG (G418 selection)
T2 sequence (Q14721 1-858): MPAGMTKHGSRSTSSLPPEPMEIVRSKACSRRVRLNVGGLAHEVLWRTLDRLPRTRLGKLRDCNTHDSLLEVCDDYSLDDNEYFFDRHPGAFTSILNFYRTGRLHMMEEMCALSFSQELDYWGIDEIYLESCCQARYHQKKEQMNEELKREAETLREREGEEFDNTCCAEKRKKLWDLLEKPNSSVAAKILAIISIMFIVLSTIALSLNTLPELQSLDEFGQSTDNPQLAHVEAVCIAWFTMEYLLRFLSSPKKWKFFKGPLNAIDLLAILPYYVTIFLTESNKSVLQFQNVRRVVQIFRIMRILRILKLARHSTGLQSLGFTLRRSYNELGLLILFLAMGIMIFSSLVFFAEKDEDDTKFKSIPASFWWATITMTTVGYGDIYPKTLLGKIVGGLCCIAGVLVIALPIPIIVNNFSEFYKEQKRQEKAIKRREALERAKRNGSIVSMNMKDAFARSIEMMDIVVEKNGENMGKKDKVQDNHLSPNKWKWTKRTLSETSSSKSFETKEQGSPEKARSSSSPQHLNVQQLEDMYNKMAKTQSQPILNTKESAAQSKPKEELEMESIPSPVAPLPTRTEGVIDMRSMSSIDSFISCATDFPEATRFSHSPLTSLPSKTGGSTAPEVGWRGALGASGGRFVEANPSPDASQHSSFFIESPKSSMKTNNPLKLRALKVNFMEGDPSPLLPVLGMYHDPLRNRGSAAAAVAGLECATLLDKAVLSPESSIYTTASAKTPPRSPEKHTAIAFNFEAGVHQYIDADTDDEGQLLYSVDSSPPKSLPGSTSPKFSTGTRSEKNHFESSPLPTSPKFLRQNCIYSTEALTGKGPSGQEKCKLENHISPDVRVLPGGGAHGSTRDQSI
Description: The purpose of this in vitro study was to evaluate the effects of HP184 on cloned human Kv2.1 potassium channels expressed in U-373MG cells using the whole-cell patch-clamping technique.
U-373MG cells expressing the human Kv2.1 channels were grown in DMEM media supplemented with 10% fetal bovine serum, 1×penicillin/streptomycin and […], G418 (Invitrogen, Carlsbad, Calif.) in an atmosphere of 95% air/5% CO2. Cells used for patch-clamping were seeded on glass or plastic coverslips 12-36 hours before use. Kv2.1 Currents were recorded at room temperature using the whole-cell configuration of the patch clamp technique with an Axopatch 200B amplifier (Axon Instruments, Foster City, Calif.). Briefly, electrodes (2-4 MΩ resistance) were fashioned from TW150F glass capillary tubes (World Precision Instruments, Sarasota, Fla.) and filled with pipette solution (in mM: potassium aspartate 120; KCl 20; Na2ATP 4; HEPES 5; MgCl2 1; pH 7.2 adjusted with KOH). For dose-dependently, currents were initiated by a 300-ms positive voltage pulse (20 mV) followed by a 50-ms negative pulse (−100 mV) and were recorded for off-line analyses. Once current from a cell perfused with control external solution (in mM: NaCl 130; KCl 5; sodium acetate 2.8; MgCl2 1; HEPES, 10; glucose 10; CaCl2 1 at pH7.4 adjusted with NaOH) was stabilized, the cell was perfused with external solution containing 1 μM HP184 (batch: R.C.4.53.3; molecular weight: 320.5; diluted from a 50 mM stock solution in DMSO; the DMSO final concentration in all drug solutions was not more than 0.06%). Currents were continuously recorded until they reached steady-state condition. The same procedure was performed with increasing concentrations of HP184 (3, 10 and 30 μM, sequentially). For each concentration from each cell, the steady-state current at the end of the 20-mV activation pulse was measured in pico Ampere (pA). The amplitude in pA for each concentration was compared with that for the control solution from the same cell and expressed as percent control (% control).

SMILES	Release of norepinephrine, acetylcholine and serotonin from rat brain slices (in words) [1]	Voltage-Gated Potassium Current (% Control), Average ([2]; 1 μM) [% Control]	Voltage-Gated Potassium Current (% Control), single cells ([2]; 1 μM)	Voltage-Gated Potassium Current (% Control), Average ([2]; 3 μM) [% Control]	Voltage-Gated Potassium Current (% Control), single cells ([2]; 3 μM)	Voltage-Gated Potassium Current (% Control), Average ([2]; 10 μM) [% Control]	Voltage-Gated Potassium Current (% Control), single cells ([2]; 10 μM)	Voltage-Gated Potassium Current (% Control), Average ([2]; 30 μM) [% Control]	Voltage-Gated Potassium Current (% Control), single cells ([2]; 30 μM)	pIC50 ([2]; HIT-T15 cells, steady-state current at end of 20-mV pulse, read-out: IC50, block of voltage-gated potassium currents)	Kv 2.1 Current (% Control), Average ([3]; 1 μM) [% Control]	Kv 2.1 Current (% Control), single cells ([3]; 1 μM)	Kv 2.1 Current (% Control), Average ([3]; 3 μM) [% Control]	Kv 2.1 Current (% Control), single cells ([3]; 3 μM)	Kv 2.1 Current (% Control), Average ([3]; 10 μM) [% Control]	Kv 2.1 Current (% Control), single cells ([3]; 10 μM)	Kv 2.1 Current (% Control), Average ([3]; 30 μM) [% Control]	Kv 2.1 Current (% Control), single cells ([3]; 30 μM)	pIC50 ([3]; U-373MG cells expressing human Kv2.1, read-out: IC50, block of Kv2.1 current)
Nc1ccncc1 [4-AP, 4-aminopyridine]	dependent on added calcium																		
CCCN(c1ccncc1F)n1cc(C)c2ccccc21 [HP184, N-(3-fluoro-4-pyridinyl)-N-propyl-3-methyl-1H-indole-1-amine]		85.7	95.1 % Control and 84.7 % Control and 80.9 % Control and 85.4 % Control and 82.6 % Control	62.5	86.4 % Control and 61.5 % Control and 46.4 % Control and 58.8 % Control and 59.3 % Control	17.2	34.0 % Control and 9.1 % Control and 12.6 % Control (2×) and 17.8 % Control	1.4	2.6 % Control and 0.8 % Control and 0.9 % Control and 1.2 % Control	5.41	91.7	98 % Control and 91.0 % Control and 89.2 % Control and 91.6 % Control and 95.0 % Control and 90.5 % Control (2×) and 94.5 % Control and 83.6 % Control and 91.8 % Control and 95.5 % Control	72.3	93.0 % Control and 63.1 % Control and 69.6 % Control and 62.9 % Control and 68.5 % Control and 70.8 % Control and 87.5 % Control and 86.1 % Control and 88.5 % Control and 79.9 % Control and 89.7 % Control	28.3	58.2 % Control and 19.9 % Control and 37.7 % Control and 24.4 % Control and 17.1 % Control and 38.5 % Control and 43.8 % Control and 13.1 % Control and 19.1 % Control and 12.5 % Control	10.4	22.1 % Control and 13.7 % Control (2×) and 16.2 % Control and 6.7 % Control and 1.4 % Control and 12.8 % Control and 4.8 % Control (2×) and 8.7 % Control	5.25
